{"source": "paper PMC8869984", "about": "“Multifunctional Silver(I) Complexes with Metronidazole Drug Reveal Antimicrobial Properties and Antitumor Activity against Human Hepatoma and Colorectal Adenocarcinoma Cells” (Cancers, 2022)", "key": {"[1]": {"test_system": "P. aeruginosa ATCC 9027", "assay": "micro-dilution broth method (MIC, MBC)", "type": "cell-based, Pseudomonas aeruginosa"}, "[2]": {"test_system": "B. subtilis ATCC 6633", "assay": "micro-dilution broth method (MIC, MBC)", "type": "cell-based, Bacillus subtilis"}, "[3]": {"test_system": "C. perfringens ATCC 13124", "assay": "microbe, parasite or virus in culture", "type": "cell-based, Clostridium perfringens"}, "[4]": {"test_system": "HepG2 cells", "assay": "NRU assay (lysosomal activity), 72 h exposure", "type": "cell-based, human", "details": "mean ± SD, n = 3", "protocol": "(§1) The human hepatoma (HepG2) and colorectal adenocarcinoma (Caco-2) cells were purchased from the American Type Culture Collection: ATCC HB-8065 and ATCC HTB-37, respectively. These cells were cultured in Minimum Essential Medium Eagle (MEME) (ATCC). The murine fibroblasts cell line (Balb/c 3T3 clone A31) (gift from the Department of Swine Diseases of the National Veterinary Research Institute in Pulawy) was cultured in Dulbecco’s Modified Eagle Medium (DMEM) (ATCC). The media were supplemented with 10% BCS (Balb/c 3T3), 10% FBS (HepG2), 20% FBS (Caco-2), 1% L-glutamine, 1% antibiotic solution. The cells were maintained in 75 cm^2 cell culture flasks (NUNC) in a humidified incubator at 37 °C in an atmosphere of 5% CO2. The medium was refreshed every two or three days, and the cells were trypsinized by 0.25% trypsin–0.02% EDTA after reaching 70–80% confluence. Single cell suspensions were prepared and adjusted to a density of 2 × 10^5 cell/mL^−1 (HepG2), 1 × 10^5 cell/mL^−1 (Caco-2) and 5 × 10^4 cell/mL^−1 (Balb/c 3T3). The cell suspension was transferred to 96-well plates (100 µL/well) and incubated for 24 h before the exposure to the studied compounds. Stock solutions of ligands and metal complexes were prepared in sterile water and diluted with culture medium to obtain a concentration range from 0.1 to 10 µM. The final concentration of sterile water was 0.1% in the medium. […] As a negative control, cultured cells were grown in the absence of studied compounds. Each concentration was tested in six replicates in three independent experiments. Cytotoxicity was assessed after 72 h of exposure of the cells to compounds. The medium was not changed during the incubation time.\nThis method is based on staining living cells with neutral red, which readily diffuses through the plasma membrane and accumulates in lysosomes. […] After 10 min of shaking, the absorbance of the dissolved NR was measured using a Synergy HTX multi-mode reader (BioTek® Instruments Inc., Winooski, VT, USA) at 540 nm using a blank as a reference. Cytotoxicity was expressed as a percentage of the negative control. […]"}, "[5]": {"test_system": "F. nucleatum ATCC 25586", "assay": "micro-dilution broth method (MIC, MBC)", "type": "cell-based, Fusobacterium nucleatum"}, "[6]": {"test_system": "P. acnes ATCC 11827", "assay": "micro-dilution broth method (MIC, MBC)", "type": "cell-based, Propionibacterium acnes"}, "[7]": {"test_system": "E. coli ATCC 25922", "assay": "micro-dilution broth method (MIC, MBC)", "type": "cell-based, Escherichia coli"}, "[8]": {"test_system": "B. cereus ATCC 10876", "assay": "micro-dilution broth method (MIC, MBC)", "type": "cell-based, Bacillus cereus"}, "[9]": {"test_system": "H. pylori ATCC 43504", "assay": "micro-dilution broth method (MIC, MBC)", "type": "cell-based"}, "[10]": {"test_system": "K. pneumoniae ATCC 13883", "assay": "micro-dilution broth method (MIC, MBC)", "type": "cell-based, Klebsiella pneumoniae"}, "[11]": {"test_system": "S. typhimurium ATCC 14028", "assay": "micro-dilution broth method (MIC, MBC)", "type": "cell-based, Salmonella Typhimurium"}, "[12]": {"test_system": "HepG2 cells", "assay": "MTT assay (mitochondrial activity), 72 h exposure", "type": "cell-based, human", "details": "mean ± SD, n = 3", "protocol": "as §1\nThe metabolic activity of living cells was assessed by the measurement of the activity of dehydrogenases. […] The plate was shaken for 15 min at room temperature and transferred to a microplate reader Synergy HTX multi-mode reader (BioTek® Instruments Inc., Winooski, VT, USA) to measure the absorbance at 570 nm, using a blank as a reference. Cytotoxicity was expressed as a percentage of the negative control. […]"}, "[13]": {"test_system": "S. aureus ATCC 25923", "assay": "micro-dilution broth method (MIC, MBC)", "type": "cell-based, Staphylococcus aureus"}, "[14]": {"test_system": "E. faecalis ATCC 29212", "assay": "micro-dilution broth method (MIC, MBC)", "type": "cell-based, Enterococcus faecalis"}, "[15]": {"details": "P. aeruginosa ATCC 9027, value in brackets"}, "[16]": {"details": "B. subtilis ATCC 6633, value in brackets"}, "[17]": {"details": "C. perfringens ATCC 13124, value in brackets"}, "[18]": {"details": "F. nucleatum ATCC 25586, value in brackets"}, "[19]": {"details": "P. acnes ATCC 11827, value in brackets"}, "[20]": {"details": "E. coli ATCC 25922, value in brackets"}, "[21]": {"details": "B. cereus ATCC 10876, value in brackets"}, "[22]": {"details": "H. pylori ATCC 43504, value in brackets"}, "[23]": {"details": "K. pneumoniae ATCC 13883, value in brackets"}, "[24]": {"details": "S. typhimurium ATCC 14028, value in brackets"}, "[25]": {"details": "S. aureus ATCC 25923, value in brackets"}, "[26]": {"details": "E. faecalis ATCC 29212, value in brackets"}}, "data": [{"smiles": "O=S(=O)([O-])[O-].[Ag+].[Ag+]", "note": "[Ag2SO4, silver sulfate]", "values": [{"measurement": "MBC", "setting": "[1]; P. aeruginosa ATCC 9027", "result": 125, "unit": "mg/L"}, {"measurement": "MIC", "setting": "[1]; P. aeruginosa ATCC 9027", "result": 62.5, "unit": "mg/L"}, {"measurement": "MBC", "setting": "[1]; [15]", "result": 0.4, "unit": "µM/mL"}, {"measurement": "MIC", "setting": "[1]; [15]", "result": 0.2, "unit": "µM/mL"}, {"measurement": "MBC", "setting": "[2]; B. subtilis ATCC 6633", "result": 31.3, "unit": "mg/L"}, {"measurement": "MIC", "setting": "[2]; B. subtilis ATCC 6633", "result": 31.3, "unit": "mg/L"}, {"measurement": "MBC", "setting": "[2]; [16]", "result": 0.1, "unit": "µM/mL"}, {"measurement": "MIC", "setting": "[2]; [16]", "result": 0.1, "unit": "µM/mL"}, {"measurement": "MBC", "setting": "[3]; C. perfringens ATCC 13124", "result": 250, "unit": "mg/L"}, {"measurement": "MIC", "setting": "[3]; C. perfringens ATCC 13124", "result": 250, "unit": "mg/L"}, {"measurement": "MBC", "setting": "[3]; [17]", "result": 0.8, "unit": "µM/mL"}, {"measurement": "MIC", "setting": "[3]; [17]", "result": 0.8, "unit": "µM/mL"}, {"measurement": "IC50", "setting": "[4]", "result": "> 10", "unit": "µM"}, {"measurement": "MBC", "setting": "[5]; F. nucleatum ATCC 25586", "result": 31.3, "unit": "mg/L"}, {"measurement": "MIC", "setting": "[5]; F. nucleatum ATCC 25586", "result": 31.3, "unit": "mg/L"}, {"measurement": "MBC", "setting": "[5]; [18]", "result": 0.1, "unit": "µM/mL"}, {"measurement": "MIC", "setting": "[5]; [18]", "result": 0.1, "unit": "µM/mL"}, {"measurement": "MBC", "setting": "[6]; P. acnes ATCC 11827", "result": 500, "unit": "mg/L"}, {"measurement": "MIC", "setting": "[6]; P. acnes ATCC 11827", "result": 125, "unit": "mg/L"}, {"measurement": "MBC", "setting": "[6]; [19]", "result": 1.6, "unit": "µM/mL"}, {"measurement": "MIC", "setting": "[6]; [19]", "result": 0.4, "unit": "µM/mL"}, {"measurement": "MBC", "setting": "[7]; E. coli ATCC 25922", "result": 62.5, "unit": "mg/L"}, {"measurement": "MIC", "setting": "[7]; E. coli ATCC 25922", "result": 62.5, "unit": "mg/L"}, {"measurement": "MBC", "setting": "[7]; [20]", "result": 0.2, "unit": "µM/mL"}, {"measurement": "MIC", "setting": "[7]; [20]", "result": 0.2, "unit": "µM/mL"}, {"measurement": "MBC", "setting": "[8]; B. cereus ATCC 10876", "result": 500, "unit": "mg/L"}, {"measurement": "MIC", "setting": "[8]; B. cereus ATCC 10876", "result": 31.3, "unit": "mg/L"}, {"measurement": "MBC", "setting": "[8]; [21]", "result": 1.6, "unit": "µM/mL"}, {"measurement": "MIC", "setting": "[8]; [21]", "result": 0.1, "unit": "µM/mL"}, {"measurement": "MBC", "setting": "[9]; H. pylori ATCC 43504", "result": 15.6, "unit": "mg/L"}, {"measurement": "MIC", "setting": "[9]; H. pylori ATCC 43504", "result": 15.6, "unit": "mg/L"}, {"measurement": "MBC", "setting": "[9]; [22]", "result": 0.05, "unit": "µM/mL"}, {"measurement": "MIC", "setting": "[9]; [22]", "result": 0.05, "unit": "µM/mL"}, {"measurement": "MBC", "setting": "[10]; K. pneumoniae ATCC 13883", "result": 31.3, "unit": "mg/L"}, {"measurement": "MIC", "setting": "[10]; K. pneumoniae ATCC 13883", "result": 31.3, "unit": "mg/L"}, {"measurement": "MBC", "setting": "[10]; [23]", "result": 0.1, "unit": "µM/mL"}, {"measurement": "MIC", "setting": "[10]; [23]", "result": 0.1, "unit": "µM/mL"}, {"measurement": "MBC", "setting": "[11]; S. typhimurium ATCC 14028", "result": 250, "unit": "mg/L"}, {"measurement": "MIC", "setting": "[11]; S. typhimurium ATCC 14028", "result": 31.3, "unit": "mg/L"}, {"measurement": "MBC", "setting": "[11]; [24]", "result": 0.8, "unit": "µM/mL"}, {"measurement": "MIC", "setting": "[11]; [24]", "result": 0.1, "unit": "µM/mL"}, {"measurement": "IC50", "setting": "[12]", "result": "> 10", "unit": "µM"}, {"measurement": "MBC", "setting": "[13]; S. aureus ATCC 25923", "result": 31.3, "unit": "mg/L"}, {"measurement": "MIC", "setting": "[13]; S. aureus ATCC 25923", "result": 15.6, "unit": "mg/L"}, {"measurement": "MBC", "setting": "[13]; [25]", "result": 0.1, "unit": "µM/mL"}, {"measurement": "MIC", "setting": "[13]; [25]", "result": 0.05, "unit": "µM/mL"}, {"measurement": "MBC", "setting": "[14]; E. faecalis ATCC 29212", "result": 125, "unit": "mg/L"}, {"measurement": "MIC", "setting": "[14]; E. faecalis ATCC 29212", "result": 31.3, "unit": "mg/L"}, {"measurement": "MBC", "setting": "[14]; [26]", "result": 0.4, "unit": "µM/mL"}, {"measurement": "MIC", "setting": "[14]; [26]", "result": 0.1, "unit": "µM/mL"}]}]}
